Target: T1, human SLC6A19 and TMEM27 (Homo sapiens, UniProt Q695T7)
T1 construct: expressed in transfected cells
T1 sequence (Q695T7 1-634): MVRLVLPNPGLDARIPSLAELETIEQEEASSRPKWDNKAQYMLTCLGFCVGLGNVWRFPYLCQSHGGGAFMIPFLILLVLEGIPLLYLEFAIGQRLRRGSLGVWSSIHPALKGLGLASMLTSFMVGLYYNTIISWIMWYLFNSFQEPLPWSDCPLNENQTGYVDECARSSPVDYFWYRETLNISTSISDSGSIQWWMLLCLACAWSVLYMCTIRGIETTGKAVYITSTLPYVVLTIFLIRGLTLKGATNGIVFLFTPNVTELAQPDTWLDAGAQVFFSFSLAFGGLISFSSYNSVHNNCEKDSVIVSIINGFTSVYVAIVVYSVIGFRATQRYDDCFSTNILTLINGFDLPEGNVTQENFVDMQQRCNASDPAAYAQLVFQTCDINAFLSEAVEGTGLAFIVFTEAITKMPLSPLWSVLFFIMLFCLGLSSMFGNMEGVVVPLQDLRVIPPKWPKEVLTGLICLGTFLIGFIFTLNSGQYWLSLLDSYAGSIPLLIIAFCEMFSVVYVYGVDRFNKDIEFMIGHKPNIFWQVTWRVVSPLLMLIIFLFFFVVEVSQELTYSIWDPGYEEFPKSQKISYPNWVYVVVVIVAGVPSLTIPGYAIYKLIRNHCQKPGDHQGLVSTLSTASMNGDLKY
T1 sequence (Q9HBJ8 15-222 partner): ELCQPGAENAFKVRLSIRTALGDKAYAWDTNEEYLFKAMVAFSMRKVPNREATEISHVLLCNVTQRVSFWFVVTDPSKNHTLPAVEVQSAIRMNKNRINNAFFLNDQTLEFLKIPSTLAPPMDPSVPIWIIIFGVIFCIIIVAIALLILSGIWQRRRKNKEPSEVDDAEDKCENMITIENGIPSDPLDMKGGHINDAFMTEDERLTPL
Experiment: Radiolabelled (3H) leucine uptake in CHO cells with doxycycline-inducible expression of human SLC6A19 and TMEM27 (Example B-1)
Assay type: cell-based
Conditions: CHO cells with doxycycline-inducible expression of human SLC6A19 and TMEM27, read-out: SLC6A19_Radioligand Uptake Assay IC50
How it was run: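 CHO cells were induced with doxycycline for 18 h at 37 °C, washed in HBSS, then exposed to compounds for 1 h: 8-point, 3-fold dilutions in duplicate, 0.5% DMSO final. Uptake measured by scintillation counting after 2 h shaking. Activity normalized with positive control as 0% and DMSO as 100%.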

IC50 [nM] | Structure (SMILES)
140 | Cc1cc(COc2cc3[nH]c(CNC(=O)[C@@H](C)O)cc3cc2Cl)on1 [Compound 256, (R)-N-((5-chloro-6-((3-methylisoxazol-5-yl)methoxy)-1H-indol-2-yl)methyl)-2-hydroxypropanamide]
362 | CC1(C(=O)NCc2cc3c(F)c(Cl)c(OCc4cscn4)cc3[nH]2)CC1 [Compound 17, N-((5-chloro-4-fluoro-6-(thiazol-4-ylmethoxy)-1H-indol-2-yl)methyl)-1-methylcyclopropane-1-carboxamide]
4480 | CN1CC(C(=O)NCc2cc3cc(Cl)c(OCc4cscn4)cc3[nH]2)C1=O (racemic) [Compound 546, (R)-N-((5-chloro-6-(thiazol-4-ylmethoxy)-1H-indol-2-yl)methyl)-1-methyl-2-oxoazetidine-3-carboxamide and (S)-N-((5-chloro-6-(thiazol-4-ylmethoxy)-1H-indol-2-yl)methyl)-1-methyl-2-oxoazetidine-3-carboxamide]
902 | CC1(C(=O)NCc2cc3cc(Cl)c(OCc4cc(F)ccn4)cc3[nH]2)CC1 [Compound 35, N-((5-chloro-6-((4-fluoropyridin-2-yl)methoxy)-1H-indol-2-yl)methyl)-1-methylcyclopropane-1-carboxamide]
486 | Cc1cc(COc2cc3[nH]c(CNC(=O)N4CC(F)(F)C4)cc3cc2Cl)on1 [Compound 370, N-((5-chloro-6-((3-methylisoxazol-5-yl)methoxy)-1H-indol-2-yl)methyl)-3,3-difluoroazetidine-1-carboxamide]
2050 | CC1(C(=O)NCc2cc3cc(Cl)c(OCc4cccc(O)c4)cc3[nH]2)CC1 [Compound 198, N-((5-chloro-6-((3-hydroxybenzyl)oxy)-1H-indol-2-yl)methyl)-1-methylcyclopropane-1-carboxamide]
567 | Cc1cc(COc2cc3[nH]c(CNC(=O)C4(C)COC4)cc3cc2Cl)on1 [Compound 273, N-((5-chloro-6-((3-methylisoxazol-5-yl)methoxy)-1H-indol-2-yl)methyl)-3-methyloxetane-3-carboxamide]
317 | Cc1cc(COc2cc3[nH]c(CNC(=O)[C@@H]4CCCO4)cc3cc2Cl)on1 [Compound 312, (S)-N-((5-chloro-6-((3-methylisoxazol-5-yl)methoxy)-1H-indol-2-yl)methyl)tetrahydrofuran-2-carboxamide]
429 | CNC(=O)NCc1cc2cc(F)c(OCc3cc(C)on3)cc2[nH]1 [Compound 212, 1-((5-fluoro-6-((5-methylisoxazol-3-yl)methoxy)-1H-indol-2-yl)methyl)-3-methylurea]
154 | CC1(C(=O)NCc2cc3cc(Cl)c(SCc4ccon4)cc3[nH]2)CC1 [Compound 197, N-((5-chloro-6-((isoxazol-3-ylmethyl)thio)-1H-indol-2-yl)methyl)-1-methylcyclo propanecarboxamide]
1970 | CC1(C(=O)NCc2cc3cc(-c4ccon4)c(OCc4cscn4)cc3[nH]2)CC1 [Compound 659, N-((5-(isoxazol-3-yl)-6-(thiazol-4-ylmethoxy)-1H-indol-2-yl)methyl)-1-methylcyclopropane-1-carboxamide]
134 | [2H]C([2H])([2H])c1cc(COc2cc3[nH]c(CNC(=O)C4(C)CC4)cc3cc2Cl)no1 [Compound 663, N-((5-chloro-6-((5-(methyl-d3)isoxazol-3-yl)methoxy)-1H-indol-2-yl)methyl)-1-methylcyclopropane-1-carboxamide]
192 | CNC(=O)NCc1cc2cc(Cl)c(OCc3cc(C)on3)cc2[nH]1 [Compound 213, 1-((5-chloro-6-((5-methylisoxazol-3-yl)methoxy)-1H-indol-2-yl)methyl)-3-methylurea]
379 | O=C(NCc1cc2cc(OC(F)(F)F)c(OCc3ccon3)cc2[nH]1)N1CCC1 [Compound 416, N-((6-(isoxazol-3-ylmethoxy)-5-(trifluoromethoxy)-1H-indol-2-yl)methyl)azetidine-1-carboxamide]
1410 | Cc1cc(COc2cc3[nH]c(CNC(=O)CC4(O)CC4)cc3cc2Cl)on1 [Compound 237, N-((5-chloro-6-((3-methylisoxazol-5-yl)methoxy)-1H-indol-2-yl)methyl)-2-(1-hydroxycyclopropyl)acetamide]
536 | CC(C)c1cc2cc(CNC(=O)C3(C)CC3)[nH]c2cc1OCc1ccon1 [Compound 204, N-((5-isopropyl-6-(isoxazol-3-ylmethoxy)-1H-indol-2-yl)methyl)-1-methylcyclopropane-1-carboxamide]

IC50 [nM] | Structure (SMILES)
337 | O=C(CC(F)(F)F)NCc1cc2cc(F)c(OCc3cscn3)cc2[nH]1 [Compound 568, 3,3,3-trifluoro-N-((5-fluoro-6-(thiazol-4-ylmethoxy)-1H-indol-2-yl)methyl)propanamide]
5880 | Cc1cc(COc2cc3[nH]c(CNC(=O)[C@H](C)O)cc3cc2F)on1 [Compound 239, (S)-N-((5-fluoro-6-((3-methylisoxazol-5-yl)methoxy)-1H-indol-2-yl)methyl)-2-hydroxypropanamide]
539 | CC1(C(=O)NCc2cc3cc(C(F)F)c(OCc4ccon4)cc3[nH]2)CC1 [Compound 646, N-((5-(difluoromethyl)-6-(isoxazol-3-ylmethoxy)-1H-indol-2-yl)methyl)-1-methylcyclopropane-1-carboxamide]
408 | CC1(C(=O)NCc2cc3cc(OC(F)(F)F)c(CCc4cocn4)cc3[nH]2)CC1 [Compound 514, 1-methyl-N-((6-(2-(oxazol-4-yl)ethyl)-5-(trifluoromethoxy)-1H-indol-2-yl)methyl)cyclopropane-1-carboxamide]
187 | [2H]C([2H])([2H])c1cc(COc2cc3[nH]c(CNC(=O)C4(C)CC4)cc3cc2F)no1 [Compound 664, N-((5-fluoro-6-((5-(methyl-d3)isoxazol-3-yl)methoxy)-1H-indol-2-yl)methyl)-1-methylcyclopropane-1-carboxamide]
183 | CCC(=O)NCc1cc2cc(F)c(OCc3ccon3)cc2[nH]1 [Compound 137, N-((5-fluoro-6-(isoxazol-3-ylmethoxy)-1H-indol-2-yl)methyl)propionamide]
293 | Cc1c(CNC(=O)N2CCC2)[nH]c2cc(OCc3cscn3)c(Cl)cc12 [Compound 473, N-((5-chloro-3-methyl-6-(thiazol-4-ylmethoxy)-1H-indol-2-yl)methyl)azetidine-1-carboxamide]
383 | Cc1cc(COc2cc3[nH]c(CNC(=O)C4(CO)CC4)cc3cc2Cl)on1 [Compound 250, N-((5-chloro-6-((3-methylisoxazol-5-yl)methoxy)-1H-indol-2-yl)methyl)-1-(hydroxymethyl)cyclopropane-1-carboxamide]
452 | CC1(C(=O)NCc2cc3cc(Cl)c(OCCc4cccnc4)cc3[nH]2)CC1 [Compound 331, N-((5-chloro-6-(2-(pyridin-3-yl)ethoxy)-1H-indol-2-yl)methyl)-1-methylcyclopropane-1-carboxamide]
97 | CC(F)(F)C(=O)NCc1cc2cc(F)c(OCc3cscn3)cc2[nH]1 [Compound 436, 2,2-difluoro-N-((5-fluoro-6-(thiazol-4-ylmethoxy)-1H-indol-2-yl)methyl)propanamide]
253 | Cc1cc(COc2cc3[nH]c(CNC(=O)N4CC(F)C4)cc3cc2Cl)on1 [Compound 372, N-((5-chloro-6-((3-methylisoxazol-5-yl)methoxy)-1H-indol-2-yl)methyl)-3-fluoroazetidine-1-carboxamide]
177 | O=C(NCc1cc2cc(Cl)c(OCc3cscn3)cc2[nH]1)N1CCC(F)C1 (centres unmarked) [Compound 93, N-((5-chloro-6-(thiazol-4-ylmethoxy)-1H-indol-2-yl)methyl)-3-fluoropyrrolidine-1-carboxamide]
90.2 | COC(=O)NCc1cc2cc(Cl)c(OCc3cc(C)no3)cc2[nH]1 [Compound 625, methyl ((5-chloro-6-((3-methylisoxazol-5-yl)methoxy)-1H-indol-2-yl)methyl)carbamate]
199 | Cc1cc(COc2cc3[nH]c(CNC(=O)C4(C#N)CC4)cc3cc2Cl)on1 [Compound 484, N-((5-chloro-6-((3-methylisoxazol-5-yl)methoxy)-1H-indol-2-yl)methyl)-1-cyanocyclopropane-1-carboxamide]
365 | O=C(NCc1cc2cc(C3CC3)c(OCc3cscn3)cc2[nH]1)N1CCCC1 [Compound 652, N-((5-cyclopropyl-6-(thiazol-4-ylmethoxy)-1H-indol-2-yl)methyl)pyrrolidine-1-carboxamide]
6600 | CC(=O)NCc1cc2cc(Cl)c(OCC3COC3)cc2[nH]1 [Compound 355, N-((5-chloro-6-(oxetan-3-ylmethoxy)-1H-indol-2-yl)methyl)acetamide]

Source: patent US20240199546A1, “INHIBITORS OF SOLUTE CARRIER FAMILY 6A MEMBER 19 (SLC6A19) AND METHODS OF USE THEREOF” (Maze Therapeutics, Inc., priority 2022, published 2024)
